Assays:
anti-STp mAb clone 30 = assay: Competitive ELISA with anti-STp antibodies (polyclonal, mAbs clone 29, 30, 31); assay type: binding; settings: anti-STp mAb Clone 30, competitive ELISA
Protocol: (§1) The anti-STh mAb ST:G8 was kindly supplied by S. Visweswariah [Garrett & Visweswariah; PMID: 8950201]. The anti-STp mAbs clone 29, clone 30, and clone 31 were obtained from Fitzgerald Industries International.
ELISA-plates (Nunc Amino Immobilizer) were coated with STh-OvA conjugate in PBS, volume 100 μl per well (synthetic STh conjugated to OvA: For ST:G8 0.04 μl/well, for clone 29 and clone 30 0.01 μl/well). Plates were incubated overnight at 4 C. Subsequently, plates were emptied and blocked with PBS-T 1% OvA for 1h at 20° C. with shaking 180 rpm. After washing (3× with PBS-T) a volume of 60 μl of sample and 60 μl of primary antibody dilution was added to wells. Final dilutions of mAbs were as follows: ST:G8 1:6500, clone 29 1:16000, clone 30 1: 30000. Competitive incubation was performed for 90 minutes at 180 rpm, 20 C. Plates were then washed with 3×200 μl PBS-T and incubated at room-temperature for 1h with secondary antibody diluted in PBS-T 100 μl per well (anti-mouse dilution 1:400 for the ST:G8 ELISA, anti-mouse dilution 1:2000 for clone 29 and clone 30 ELISA). After renewed washing with 3×200 μl PBS-T, plates were developed with 100 μl developing buffer for 15-20 minutes. Developing was stopped by adding 50 μl NaOH 2M to each well, and OD was read at 405 nm with a Fluostar Optima plate reader.
For the clone 31 mAb a slightly different protocol was developed. […]

anti-STh mAb ST:G8 = assay: Competitive ELISA with anti-STh antibodies (polyclonal, mAb ST:G8); assay type: binding; settings: polyclonal and monoclonal (ST:G8) anti-STh antibodies
Protocol: Competitive STh ELISA was performed as previously described (PMID: 6520401; Lockwood and Robertson, J Immunol Methods. 1984 Dec. 31; 75(2):295-307) with minor modifications. A U-shaped microtiter plate (Linbro, Fisher Scientific, Göteborg, Sweden) was coated with STh-ovalbumin conjugate diluted in ELISA buffer (NaCl 128 mM, KCl 2.68 mM, KH2PO4 1.47 mM, Na2HPO4 8.10 mM; pH 7.0-7.2). The plate was covered with plate sealer and incubated overnight at 37° C. Contents of the wells were discarded by inversion. Additional protein binding sites were blocked by incubating with ovalbumin 1% (w/v) (Sigma-Aldrich) diluted in ELISA buffer. After incubation for 1 h at 37° C., wells were emptied and washed three times with wash buffer (ELISA buffer containing ovalbumin 0.05% (w/v) and Tween-20 0.05% (v/v)). 75 μL of samples containing STh and 75 μL of diluted antisera (Protein-A purified rabbit anti-STa kindly supplied by John D. Clements; Department of Microbiology and Immunology, Tulane University, New Orleans, USA) were added. Both dilutions were done in ELISA buffer containing ovalbumin 0.05% (w/v). Appropriate dilutions and concentrations of reagents were determined by checkerboard titrations. The plate was incubated for 2 h at 37° C., in a rotary incubator shaker (Infors HT, Bottmingen/Basel Switzerland) at 180 rpm. Wells were emptied and washed three times with wash buffer. 100 μL of anti-Rabbit IgG Alkaline Phosphatase Conjugate developed in goat (Sigma-Aldrich) diluted 1:400 in ELISA buffer with ovalbumin 0.05% (w/v) were add and incubated with not shaking for 1 h at 37° C. Wells were emptied and washed three times with wash buffer followed by addition of 100 μL of 4-Nitrophenyl phosphate disodium salt hexahydrate at 1 mg/mL in diethanolamine buffer (diethanolamine 9.7% (v/v), MgCl2×6H2O 0.49 mM; pH 9.8). After incubation for 30 min, the reaction was stopped with 50 μL 2N NaOH (VWR international) in each well. The absorbance was read in an automatic plate reader at 405 nm (FLUOstar OPTIMA; BMG Labtech, Germany). All samples were measured in triplicate.
as §1
ELISA-plates (Nunc Amino Immobilizer) were coated with STh-OvA conjugate in PBS, volume 100 μl per well (synthetic STh conjugated to OvA: For ST:G8 0.04 μl/well, for clone 29 and clone 30 0.01 μl/well). Plates were incubated overnight at 4 C. Subsequently, plates were emptied and blocked with PBS-T 1% OvA for 1h at 20° C. with shaking 180 rpm. […] Developing was stopped by adding 50 μl NaOH 2M to each well, and OD was read at 405 nm with a Fluostar Optima plate reader.

With “uroguanylin (NDDCELCVNVACTGCL) [endogenous peptide ligand of the GC-C receptor]” the “binding by anti-STp antibodies” value (anti-STp mAb clone 30) was “does not cross-react” and the “binding by anti-STh antibodies” value (anti-STh mAb ST:G8) was “bound”.

— patent US10166279B2, “Vaccine” (Bergen Teknologioverføring AS, priority 2013, dated 2019)
